{"source": "paper PMC2362906", "about": "“Effects of new 17α-hydroxylase/C17,20-lyase inhibitors on LNCaP prostate cancer cell growth in vitro and in vivo” (British Journal of Cancer, 1999)", "key": {"[1]": {"target": "T1, human 17α-hydroxylase/C17,20-lyase (P450c17) expressed in LNCaP-CYP17 cells (Homo sapiens, UniProt P05093)", "T1 sequence (P05093 9-508 limits assumed)": "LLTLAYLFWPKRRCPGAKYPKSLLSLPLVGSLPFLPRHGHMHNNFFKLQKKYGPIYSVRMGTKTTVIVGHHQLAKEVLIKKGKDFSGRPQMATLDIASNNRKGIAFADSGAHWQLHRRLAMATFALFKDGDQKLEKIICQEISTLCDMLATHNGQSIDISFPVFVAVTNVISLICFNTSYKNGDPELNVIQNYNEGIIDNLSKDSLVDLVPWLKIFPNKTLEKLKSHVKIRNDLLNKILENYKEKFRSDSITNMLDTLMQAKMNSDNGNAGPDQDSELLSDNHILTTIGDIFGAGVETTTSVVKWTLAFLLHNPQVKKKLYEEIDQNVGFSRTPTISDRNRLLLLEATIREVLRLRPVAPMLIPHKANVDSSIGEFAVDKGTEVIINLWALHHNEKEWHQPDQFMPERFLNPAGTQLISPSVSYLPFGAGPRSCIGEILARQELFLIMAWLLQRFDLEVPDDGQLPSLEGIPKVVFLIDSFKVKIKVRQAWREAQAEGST", "experiment": "[3H]-acetic acid releasing assay (AARA) with LNCaP-CYP17 cells", "format": "cell-based", "details": "LNCaP-CYP17 cells, 7 μM [21-3H]17-OHP5, 16 h; mean ± s.e.m., three experiments"}, "[2]": {"tested_on": "LNCaP cells", "experiment": "Testosterone-stimulated wild-type LNCaP cell growth", "format": "cell-based, human", "details": "0.1 nM testosterone, 9 days", "description": "(§1) Prostate cancer is the most common malignancy and the second leading cause of cancer-related deaths among men in the US and the UK (Shibata et al, 1998). […] Steroidal 17-hydroxylase/C17,20 -lyase (P450c17) (EC 1.14.99.0) was selected as the target enzyme for inhibition, as this is a key regulatory enzyme of androgen synthesis. P450c17 catal- yses two sequential reactions in the steroid biosynthetic pathway and converts pregnenolone and progesterone to the C-19 andro- gens, dehydroepiandrosterone and androstenedione respectively. This enzyme has an identical amino acid sequence in testicular and adrenal tissues (Chung et al, 1987). […] In order to evaluate the effectiveness of these inhibitors we developed a multi-step system, which utilized the LNCaP human prostate cancer cell line. LNCaP cells remain the only androgen receptor (AR)-positive prostate cancer cell line, that can be readily grown in tissue culture (Horoszewicz et al, 1983). These cells respond to androgens with increased cell proliferation and elevated expression of prostate specific antigen (PSA) (Berns et al, 1993). LNCaP cells at early passages are not only androgen-responsive, but also androgen- dependent (Pousette et al, 1997). This is similar to the situation in most tumours of prostatic cancer patients, which are initially highly responsive and dependent on androgens. […] Therefore, we employed LNCaP cells as a model for evaluating the effectiveness of our new inhibitors of androgen synthesis. In this study the compounds selected for evaluation were two groups of azolyl steroids. […] Here we report on the application of LNCaP-CYP17-transfected cells for determining the inhibitory potencies of the new compounds against the P450c17 enzyme. […] We designed and evaluated two groups of azolyl steroids: 5-non-competitive inhibitors (5NCIs), VN/63-1, VN/85-1, VN/87-1 and their corresponding 4 derivatives (4NCIs), VN/107-1, VN/108-1 and VN/109-1. The human P450c17 gene was transfected into LNCaP human prostate cancer cells, and the resultant LNCaP- CYP17 cells were utilized to evaluate the inhibitory potency of the new azolyl steroids. […] We further evaluated our inhibitors in male severe combined immuno- deficient mice bearing LNCaP tumour xenografts. […] We also utilized wild-type LNCaP prostatic carcinoma cells for evaluating the direct effects of new azolyl steroids on proliferation of these cells in vitro and in vivo. MATERIALS AND METHODS Materials The human prostate cancer cell line LNCaP was obtained from the American Type Culture Collection (Rockville, MD, USA). RPMI- 1640 medium, trypsin-EDTA (0.25%/0.02%), penicillin/strepto- mycin (P/S), geniticin (G418), and LipofectAMINE were from Gibco-BRL (Grand Island, NY, USA). Fetal bovine serum (FBS) was obtained from Summit Biotechnology Inc. (Fort Collins, CO, USA) and steroid-free FBS was prepared as described previously (Klus et al, 1996). Phenol red free IMEM and trypsin-versine were purchased from Biofluids Inc. (Rockville, MD, USA). Chloroform and acetonitrile were purchased from JT Baker, Inc (Phillipsburg, NJ, USA). Hydroxypropyl cellulose (HPC) was purchased from Sigma Chemical Co. (St Louis, MO, USA). The PSA enzyme- linked immunusorbent assay (ELISA) kit was from DSL Inc. (Webster, TX, USA). Matrigel was generously supplied by Dr Hynda Kleinman (NIH, Bethesda, MD, USA). Inhibitors of androgen synthesis: VN/63-1, VN/85-1, VN/87-1, VN/107-1, VN/108-1 and VN/109-1 were synthesized in our labo- ratory as previously described (Njar et al, 1998). […] Metribolone [17-methyl-3 H]-R1881 ([3 H]-R1881: specific activity 86 Ci mmol-1 ) was purchased from Dupont NEN (Boston, MA, USA)."}, "[3]": {"tested_on": "LNCaP cells", "experiment": "DHT-stimulated wild-type LNCaP cell growth", "format": "cell-based, human", "details": "0.03 nM DHT, 9 days", "description": "as §1"}, "[4]": {"tested_on": "LNCaP tumour xenografts", "experiment": "LNCaP tumour xenograft growth in male SCID mice", "format": "in vivo", "details": "second experiment, 50 mg kg-1 day-1, 28 days", "description": "as §1"}, "[5]": {"tested_on": "serum testosterone", "experiment": "Serum testosterone (RIA) in SCID mice", "format": "in vivo, male SCID mice", "details": "Table 3, second experiment, 28 days of treatment, 50 mg kg-1 day-1; control 0.205", "description": "as §1"}, "[6]": {"tested_on": "serum DHT", "experiment": "Serum DHT (RIA) in SCID mice", "format": "in vivo, male SCID mice", "details": "Table 3, second experiment, 28 days of treatment, 50 mg kg-1 day-1; control 239.2", "description": "as §1"}, "[7]": {"target": "human prostatic 5-reductase", "design": "method as in Njar et al, 1998", "details": "human prostatic microsomes; reported previously; ref Njar et al, 1998; cited from earlier work"}}}
{"smiles": "C[C@]12CC[C@H](O)CC1=CC[C@@H]1[C@@H]2CC[C@]2(C)C(n3cncn3)=CC[C@@H]12", "note": "[VN/63-1]", "values": [{"measurement": "IC50", "setting": "[1]", "result": 47.1, "unit": "nM"}, {"measurement": "Concentration that completely inhibited the growth stimulatory effect of testosterone", "setting": "[2]", "result": 1.0, "unit": "µM"}, {"measurement": "Concentration that completely blocked DHT stimulation", "setting": "[3]", "result": 1.0, "unit": "µM"}, {"measurement": "Effect on tumour growth (words)", "setting": "[4]", "result": "Neither VN/63-1, VN/107 nor ketoconazole had any appreciable effects"}, {"measurement": "Serum Testosterone", "setting": "[5]", "result": 0.146, "unit": "ng/mL"}, {"measurement": "Serum DHT", "setting": "[6]", "result": 189.7, "unit": "pg/mL"}, {"measurement": "IC50", "setting": "[7]", "result": "> 5000", "unit": "nM"}]}
{"smiles": "C[C@]12CCC(=O)C=C1CC[C@@H]1[C@@H]2CC[C@]2(C)C(n3cncn3)=CC[C@@H]12", "note": "[VN/107-1]", "values": [{"measurement": "IC50", "setting": "[1]", "result": 12.4, "unit": "nM"}, {"measurement": "Effect on testosterone-stimulated cell growth (words)", "setting": "[2]; 0.5-5.0 μM compound", "result": "ineffective against testosterone-stimulated cell growth"}, {"measurement": "Effect on DHT-induced cell proliferation", "setting": "[3]; 0.5-5.0 μM compound", "result": "least effective inhibitors of androgen-induced cell pro- liferation"}, {"measurement": "Effect on tumour growth (words)", "setting": "[4]", "result": "no significant effects on tumour growth or tumour weights"}, {"measurement": "Effect on tumour growth (words)", "setting": "[4]; listed as VN/107", "result": "Neither VN/63-1, VN/107 nor ketoconazole had any appreciable effects"}, {"measurement": "Serum Testosterone", "setting": "[5]", "result": 0.153, "unit": "ng/mL"}, {"measurement": "Serum DHT", "setting": "[6]", "result": 180.2, "unit": "pg/mL"}, {"measurement": "IC50", "setting": "[7]", "result": 152, "unit": "nM"}]}
{"smiles": "C[C@]12CC[C@H]3[C@@H](CCC4=CC(=O)CC[C@@]43C)[C@@H]1CC[C@@H]2O", "note": "[Testosterone, reference compound]", "values": [{"measurement": "Stimulation of LNCaP cell proliferation compared to vehicle-treated control cells", "setting": "[2]", "result": 5.8, "unit": "fold"}]}
